The values that follow come from US20230220047A1, “PEPTIDES FOR TREATMENT OF SEPSIS AND CANCER” (NORWEGIAN UNIVERSITY OF SCIENCE AND TECHNOLOGY (NTNU), priority 2020, published 2023).

In one data set the test system is TLR9. In kind it is cell-based, human. To be noted: 15 μM, 1 h pre-treatment, CpG 2006. How it is done:
CpG 2006 (10 μM) was used as specific TLR9 ligand. (A) Results of LDH assay on SNs from stimulated cells. (B-E) Results of qPCR analysis of cytokine expression with TaqMan probes. (F) Results of ELISA for secreted IL-113 levels. Cells were pre-treated with 15 μM peptides for 1 h, followed by addition of CpG 2006 to the cell culture media.
We then tested whether P7-Pen could alter signaling via another endosomal PRR: TLR9, which recognises specific unmethylated CpG motifs prevalent in microbial DNA. In humans, TLR9 is almost exclusively expressed in B cells and plasmacytoid dendritic cells (pDC), while in mice TLR9 is expressed more widely, including in myeloid immune cells. To test the effect of P7-Pen on signaling via human TLR9 we used a model system of THP-1 cells expressing an inducible TLR9^CHERRY construct. 48 hr after induction of TLR9 expression by doxycycline, undifferentiated THP-1 TLR9^CHERRY cells were pre-treated with control or P7-Pen peptide for 1 hr, then stimulated with the Class B CpG oligonucleotide CpG 2006 ODN (a human-specific TLR9 agonist). […] Thus, P7 peptide could also be used to inhibit the expression of selected cytokines mediated by TLR9 in human disease.

The subject of the next data set is TLR4. Put plainly: Western blot of LPS signalling in THP-1 cells and primary human monocytes. In kind it is cell-based. How it is done: Protein pellets were dissolved by heating protein pellets for 10 min at 95° C. in buffer containing 4 M urea, 1 SDS (Sigma) and NuPAGE® LDS Sample Buffer (4×) (Thermo Fisher Scientific). Otherwise, lysates were made using 1× RIPA lysis buffer (150 mM NaCl, 50 mM TrisHCl (pH 7.5), 1% Triton X100, 5 mM EDTA, protease inhibitors, phosphatase inhibitors). For Western blot analysis we used pre-cast protein gels NuPAGE™ Novex™ and iBlot Transfer Stacks iBlot Gel Transfer Device (Thermo Fisher Scientific). Proteins were transferred to the membrane by dry-blotting using iBlot® 2 NC Regular/Mini Stacks (Life Technologies) in the iBlot 2 Dry Blotting System (Life Technologies). After secondary antibody incubation, membranes were washed and incubated with HRP substrate solution (SuperSignal™ West Femto Maximum Sensitivity Substrate (Thermo Fisher Scientific)). Images were taken using Odyssey® Fc (LI-CORE). Quantification graphs were generated by the analysis of signal intensities for protein bands (protein of interest and endogenous loading control—β-tubulin from the same membrane) using Odyssey software (LI-CORE). Data were normalised to the expression levels of β-tubulin and presented as a relative fold change to the control sample.
Further, we tested the effect of P7-Pen on phosphorylation of p38 MAPK, IκBα degradation and modification of IRAK1 in human macrophages (THP-1 cells) and primary human monocytes. P7-Pen inhibited LPS-mediated phosphorylation of p38 MAPK (FIG. 24A) and inhibited IRAK1 ubiquitination/phosphorylation (visualised as band shift to higher molecular weight) in primary monocytes (FIG. 24B).

Data set [1] addresses T1, Mal interaction with MyD88 and IRAK1 (Homo sapiens, UniProt P58753).
T1 construct: endogenous in cells; host or cells: primary human macrophages, LPS-stimulated
The data set is described as follows: Anti-Mal immunoprecipitation from LPS-stimulated primary human macrophages. In kind it is cell-based. Particulars: 15 μM, 30 min pre-treatment, LPS 30 min or 1 h. How it is done: (A) Mal^Flag was overexpressed in HEK293T cells. […] Lysis buffer contained 300 mM NaCl and 1% Triton X100. (B) Mal^Flag and SLAMF1 wt or deletion mutants (Δ20 or Δ67 C-terminal amino acids) were co-expressed in HEK293T cells followed by immunoprecipitations with anti-Flag beads and Western blot analysis. (C) Primary human macrophages were pre-treated with 15 μM peptides for 30 min, stimulated with LPS for another 30 min or 1 h, lysed and used for IPs. Precipitations were performed using goat anti-Mal polyclonal antibodies covalently bound to magnetic beads, followed by Western blot analysis. Proteins in lysates were analysed for input control (A-C).

The test system of the next data set is TLR8. The data set is described as follows: Primary human macrophages stimulated with CL075: cytokine mRNA, Western blot, IRAK precipitations. In kind it is cell-based. To be noted: TLR8-stimulated cells, 15 μM, CL075 3 μg/ml. How it is done: Primary human macrophages (PBMC derived, differentiated in media with 10% human serum and M-CSF 20 ng/ml, 7 days) were stimulated with K12 LPS (100 ng/ml), FSL-1 (100 ng/ml) or CL075 (3 μg/ml). […] (B) qPCR for mRNA expression of IFNβ, IL-6, TNF and IL-1β, average for three biological replicates, error bars ±SD.
Primary human macrophages (7 days) were pre-treated with Pen or P7-Pen (15 μM) for 30 min before addition of LPS (100 ng/ml), FSL-1 (100 ng/ml) or CL075 (3 μg/ml). A: Protein expression in lysates for input control. B,C: Precipitations were performed using sheep anti-IRAK4 (B) or anti-IRAK1 (C) polyclonal antibodies covalently bound to magnetic beads.
(A western blot detects proteins with antibodies after separation by electrophoresis.)

The next data set concerns THP-1 cells. Put plainly: LDH cytotoxicity assay in THP-1 cells. Particulars: 1 h pre-treatment.

Entries after “also recorded” stand apart in the source; their conditions may differ.

T1 sequence (P58753 whole entry): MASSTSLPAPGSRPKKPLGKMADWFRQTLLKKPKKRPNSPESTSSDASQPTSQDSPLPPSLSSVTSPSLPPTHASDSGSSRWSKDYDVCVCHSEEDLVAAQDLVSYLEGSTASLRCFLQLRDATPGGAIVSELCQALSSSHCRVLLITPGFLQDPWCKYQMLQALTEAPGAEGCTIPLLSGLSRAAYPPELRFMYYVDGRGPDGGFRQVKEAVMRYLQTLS

For the substance “Ac-ITVYASVTLTGRQIKIWFQNRRMKWKK-NH2 [Peptide P7-Pen]”, in the data set with TLR9, the “TLR9-mediated IFNβ and CXCL10 expression” value was “strongly inhibited”; the “TLR9-mediated expression of TNF and IL-1β” value is reported as “to some extent inhibited”. In the data set on TLR4 (THP-1 cells), the “LPS-mediated phosphorylation of p38 MAPK” value is given as “inhibited”. Moreover, in the data set on TLR4 (primary monocytes, LPS), the IRAK1 ubiquitination/phosphorylation result is given as “inhibited”. In addition, the “Mal recruitment to the MyD88 complex and IRAK1” value in data set [1] was “totally abrogated; also recorded: disruption”. Besides, in the data set with TLR8, the “IRAK1 and IRAK4 recruitment to MyD88 at an early time point” value is given as “inhibitory effect”; the “late recruitment of IRAKs or phosphorylation of p38 MAPKs” value is given as “no effect”.
With “Ac-ITVYASVTLTGRRRRRRRRRRR-NH2 [Peptide P7-Arg11]”, the “toxicity (LDH assay)” value in the data set on THP-1 cells (5 μM and 10 μM) is on record as “essentially non-toxic”; in the data set on THP-1 cells (20 μM), “increased toxicity”.
